Measured values published in US12415803B2, “Fused imidazopyridines as reversible inhibitors of Brutons Tyrosine Kinase (BTK)” (Merck Patent GmbH, priority 2018, dated 2025).

What was measured:
Btk = Btk (Homo sapiens (Human), UniProt Q06187); assay: Btk PBMC IC50 Cell Assay (anti-IgM-induced CD69 expression on B cells); format: cell-based; conditions: anti-IgM-induced CD69 expression on CD19 positive cells in human PBMCs;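 note: freshly isolated human PBMCs, IC50 from concentration-response of the share of CD19+ cells expressing CD69 after anti-IgM BCR stimulation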
full-length human BTK = full-length human BTK (Homo sapiens (Human), UniProt Q06187); assay: BTK IC50 Enzyme Assay (microfluidic off-chip mobility shift kinase assay); format: biochemical; conditions: Btk Enzymatic IC50 Assay, 90 min at 27 C;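 note: Read-out separates phosphorylated peptide product from substrate by their charge-to-mass difference, with IC50 fitted from log inhibitor concentration against percent enzyme activity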
full-length human BTK, sequence (Q06187 whole entry): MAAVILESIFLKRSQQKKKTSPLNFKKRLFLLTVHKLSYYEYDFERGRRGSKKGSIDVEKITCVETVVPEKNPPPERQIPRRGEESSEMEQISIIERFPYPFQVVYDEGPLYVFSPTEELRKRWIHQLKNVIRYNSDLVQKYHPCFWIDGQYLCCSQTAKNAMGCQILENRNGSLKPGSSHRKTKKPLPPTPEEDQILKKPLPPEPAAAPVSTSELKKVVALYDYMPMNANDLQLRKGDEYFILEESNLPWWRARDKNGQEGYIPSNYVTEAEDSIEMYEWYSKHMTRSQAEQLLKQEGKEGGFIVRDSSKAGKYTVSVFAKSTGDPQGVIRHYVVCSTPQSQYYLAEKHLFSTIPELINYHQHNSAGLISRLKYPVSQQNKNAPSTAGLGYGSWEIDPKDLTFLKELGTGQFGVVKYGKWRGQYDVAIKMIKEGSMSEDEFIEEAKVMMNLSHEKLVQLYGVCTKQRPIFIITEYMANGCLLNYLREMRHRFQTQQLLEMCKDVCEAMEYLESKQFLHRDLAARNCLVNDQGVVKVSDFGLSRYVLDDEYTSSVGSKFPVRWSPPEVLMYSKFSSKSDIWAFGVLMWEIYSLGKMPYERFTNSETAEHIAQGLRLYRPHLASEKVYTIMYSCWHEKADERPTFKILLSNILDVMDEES

Btk, sequence (Q06187 whole entry): as above

| SMILES | IC50 (Btk) | IC50 (full-length human BTK) |
| --- | --- | --- |
| Cc1nn(C(C)C)cc1-c1nc2nccc(-c3ccc4c(c3)CCCC[C@@H]4NC(=O)c3nnc(C(C)(C)C)o3)c2[nH]1 [Compound 77, 5-tert-butyl-N-[(5S)-2-{2-[3-methyl-1-(propan-2-yl)-1H-pyrazol-4-yl]-1H-imidazo[4,5-b]pyridin-7-yl}-6,7,8,9-tetrahydro-5H-benzo[7]annulen-5-yl]-1,3,4-oxadiazole-2-carboxamide] | 10 to 100 nM | 1 to 10 nM |
| Cc1c(-c2nc3nccc(-c4ccc5c(c4)CCCC[C@@H]5NC(=O)c4nnc(C(C)(C)C)o4)c3[nH]2)cnn1C1CCOCC1 [Compound 80, 5-tert-butyl-N-[(5S)-2-{2-[5-methyl-1-(oxan-4-yl)-1H-pyrazol-4-yl]-1H-imidazo[4,5-b]pyridin-7-yl}-6,7,8,9-tetrahydro-5H-benzo[7]annulen-5-yl]-1,3,4-oxadiazole-2-carboxamide] | > 100 nM | 1 to 10 nM |
| CC(C)n1cc(-c2nc3nccc(-c4ccc5c(c4)CCCC[C@H]5NC(=O)c4nc(C(C)(C)C)no4)c3[nH]2)cn1 [Compound 82] | < 1 nM | < 1 nM |
| Cc1c(-c2nc3c(-c4ccc5c(c4)CCCCC5NC(=O)c4nnc(C(C)(C)C)o4)ccnc3[nH]2)cnn1C(C)C (stereo not shown) [Compound 84, 5-tert-butyl-N-(2-{2-[5-methyl-1-(propan-2-yl)-1H-pyrazol-4-yl]-3H-imidazo[4,5-b]pyridin-7-yl}-6,7,8,9-tetrahydro-5H-benzo[7]annulen-5-yl)-1,3,4-oxadiazole-2-carboxamide] | 1 to 10 nM | < 1 nM |
| CCn1ncc(-c2nc3c(-c4ccc5c(c4)CCCCC5NC(=O)c4nc(C(C)(C)C)no4)ccnc3[nH]2)c1C (stereo not shown) [Compound 85, 3-tert-butyl-N-{2-[2-(1-ethyl-5-methyl-1H-pyrazol-4-yl)-3H-imidazo[4,5-b]pyridin-7-yl]-6,7,8,9-tetrahydro-5H-benzo[7]annulen-5-yl}-1,2,4-oxadiazole-5-carboxamide] | 1 to 10 nM | < 1 nM |
| Cc1nn(C(C)C)c(C)c1-c1nc2c(-c3ccc4c(c3)CCCC[C@H]4NC(=O)c3nnc(C(C)(C)C)o3)ccnc2[nH]1 [Compound 87, 5-tert-butyl-N-[(5R)-2-{2-[3,5-dimethyl-1-(propan-2-yl)-1H-pyrazol-4-yl]-3H-imidazo[4,5-b]pyridin-7-yl}-6,7,8,9-tetrahydro-5H-benzo[7]annulen-5-yl]-1,3,4-oxadiazole-2-carboxamide] | 1 to 10 nM | < 1 nM |
| Cc1nn(C(C)C)c(C)c1-c1nc2c(-c3ccc4c(c3)CCCC[C@@H]4NC(=O)c3nnc(C(C)(C)C)o3)ccnc2[nH]1 [Compound 88, 5-tert-butyl-N-[(5S)-2-{2-[3,5-dimethyl-1-(propan-2-yl)-1H-pyrazol-4-yl]-3H-imidazo[4,5-b]pyridin-7-yl}-6,7,8,9-tetrahydro-5H-benzo[7]annulen-5-yl]-1,3,4-oxadiazole-2-carboxamide] | > 100 nM | 1 to 10 nM |
| CCc1cc(-c2nc3nccc(-c4ccc5c(c4)CCCC[C@H]5NC(=O)c4nnc(C(C)(C)C)o4)c3[nH]2)nn1C [Compound 90, 5-tert-butyl-N-[(5R)-2-[2-(5-ethyl-1-methyl-1H-pyrazol-3-yl)-1H-imidazo[4,5-b]pyridin-7-yl]-6,7,8,9-tetrahydro-5H-benzo[7]annulen-5-yl]-1,3,4-oxadiazole-2-carboxamide] | 10 to 100 nM | 1 to 10 nM |
| Cn1cc(-c2nc3c(-c4ccc5c(c4)CCCC5NC(=O)c4nnc(C(C)(C)C)o4)ccnc3[nH]2)cn1 (stereo not shown) [Compound 104, 5-tert-Butyl-[1,3,4]oxadiazole-2-carboxylic acid {6-[2-(1-methyl-1H-pyrazol-4-yl)-3H-imidazo[4,5-b]pyridin-7-yl]-1,2,3,4-tetrahydro-naphthalen-1-yl}-amide] | 10 to 100 nM | 1 to 10 nM |
| CC(C)n1cc(-c2nc3c(-c4ccc5c(c4)CCCCC5NC(=O)c4nc(C(C)(C)C)no4)ccnc3[nH]2)cn1 (stereo not shown) [Compound 106, 3-tert-Butyl-[1,2,4]oxadiazole-5-carboxylic acid {2-[2-(1-isopropyl-1H-pyrazol-4-yl)-3H-imidazo[4,5-b]pyridin-7-yl]-6,7,8,9-tetrahydro-5H-benzocyclohepten-5-yl}-amide] | 1 to 10 nM | < 1 nM |
| Cn1ccc(-c2nc3c(-c4ccc5c(c4)CCCCC5NC(=O)c4nc(C(C)(C)C)no4)ccnc3[nH]2)n1 (stereo not shown) [Compound 109, 3-tert-Butyl-[1,2,4]oxadiazole-5-carboxylic acid {2-[2-(1-methyl-1H-pyrazol-3-yl)-3H-imidazo[4,5-b]pyridin-7-yl]-6,7,8,9-tetrahydro-5H-benzocyclohepten-5-yl}-amide] | < 1 nM | < 1 nM |
| Cc1cc(-c2nc3c(-c4ccc5c(c4)CCCCC5NC(=O)c4nc(C(C)(C)C)no4)ccnc3[nH]2)nn1C (stereo not shown) [Compound 110, 3-tert-Butyl-[1,2,4]oxadiazole-5-carboxylic acid {2-[2-(1,5-dimethyl-1H-pyrazol-3-yl)-3H-imidazo[4,5-b]pyridin-7-yl]-6,7,8,9-tetrahydro-5H-benzocyclohepten-5-yl}-amide] | 1 to 10 nM | < 1 nM |
| Cc1cc(-c2nc3c(-c4ccc5c(c4)CCCC5NC(=O)c4nc(C(C)(C)C)no4)ccnc3[nH]2)nn1C(C)C (stereo not shown) [Compound 112, 3-tert-Butyl-[1,2,4]oxadiazole-5-carboxylic acid {6-[2-(1-isopropyl-5-methyl-1H-pyrazol-3-yl)-3H-imidazo[4,5-b]pyridin-7-yl]-1,2,3,4-tetrahydro-naphthalen-1-yl}-amide] | 10 to 100 nM | 1 to 10 nM |
| Cc1cc(-c2nc3c(-c4ccc5c(c4)CCCCC5NC(=O)c4nc(C5(C)CC5)no4)ccnc3[nH]2)nn1C(C)C (stereo not shown) [Compound 117, 3-(1-Methyl-cyclopropyl)-[1,2,4]oxadiazole-5-carboxylic acid {2-[2-(1-isopropyl-5-methyl-1H-pyrazol-3-yl)-3H-imidazo[4,5-b]pyridin-7-yl]-6,7,8,9-tetrahydro-5H-benzocyclohepten-5-yl}-amide] | 1 to 10 nM | < 1 nM |
| Cc1nn(C)c(C)c1-c1nc2c(-c3ccc4c(c3)CCCC[C@@H]4NC(=O)c3nnc(C(C)(C)C)o3)ccnc2[nH]1 [Compound 122, 5-tert-Butyl-[1,3,4]oxadiazole-2-carboxylic acid {(S)-2-[2-(1,3,5-trimethyl-1H-pyrazol-4-yl)-3H-imidazo[4,5-b]pyridin-7-yl]-6,7,8,9-tetrahydro-5H-benzocyclohepten-5-yl}-amide] | > 100 nM | 1 to 10 nM |
| Cc1nn(C)c(C)c1-c1nc2c(-c3ccc4c(c3)CCCC[C@@H]4NC(=O)c3nc(C(C)(C)C)no3)ccnc2[nH]1 [Compound 141, 3-tert-Butyl-[1,2,4]oxadiazole-5-carboxylic acid {(S)-2-[2-(1,3,5-trimethyl-1H-pyrazol-4-yl)-3H-imidazo[4,5-b]pyridin-7-yl]-6,7,8,9-tetrahydro-5H-benzocyclohepten-5-yl}-amide] | > 100 nM | 10 to 100 nM |
| Cc1c(-c2nc3c(-c4ccc5c(c4)CCCC5NC(=O)N4CC(OC(C)(C)C)C4)ccnc3[nH]2)cnn1C(C)C (stereo not shown) [Compound 145, 3-tert-Butoxy-azetidine-1-carboxylic acid {6-[2-(1-isopropyl-5-methyl-1H-pyrazol-4-yl)-3H-imidazo[4,5-b]pyridin-7-yl]-1,2,3,4-tetrahydro-naphthalen-1-yl}-amide] | 10 to 100 nM | < 1 nM |
| Cc1c(-c2nc3c(-c4ccc5c(c4)CCCC5NC(=O)c4nc(C5(C)CC5)no4)ccnc3[nH]2)cnn1C(C)C (stereo not shown) [Compound 146, 3-(1-Methyl-cyclopropyl)-[1,2,4]oxadiazole-5-carboxylic acid {6-[2-(1-isopropyl-5-methyl-1H-pyrazol-4-yl)-3H-imidazo[4,5-b]pyridin-7-yl]-1,2,3,4-tetrahydro-naphthalen-1-yl}-amide] | 1 to 10 nM | 1 to 10 nM |
| Cc1c(-c2nc3c(-c4ccc5c(c4)CCCC5NC(=O)N4CC(OC(C)(C)C)C4)ccnc3[nH]2)cnn1C1CCOCC1 (stereo not shown) [Compound 147, 3-tert-Butoxy-azetidine-1-carboxylic acid (6-{2-[5-methyl-1-(tetrahydro-pyran-4-yl)-1H-pyrazol-4-yl]-3H-imidazo[4,5-b]pyridin-7-yl}-1,2,3,4-tetrahydro-naphthalen-1-yl)-amide] | 1 to 10 nM | < 1 nM |
| Cc1c(-c2nc3c(-c4ccc5c(c4)CCCC5NC(=O)c4noc(C5(C)CC5)n4)ccnc3[nH]2)cnn1C1CCOCC1 (stereo not shown) [Compound 151, 5-(1-Methyl-cyclopropyl)-[1,2,4]oxadiazole-3-carboxylic acid (6-{2-[5-methyl-1-(tetrahydro-pyran-4-yl)-1H-pyrazol-4-yl]-3H-imidazo[4,5-b]pyridin-7-yl}-1,2,3,4-tetrahydro-naphthalen-1-yl)-amide] | 1 to 10 nM | < 1 nM |
| Cc1c(-c2nc3c(-c4ccc5c(c4)CCC[C@H]5NC(=O)c4nc(C5(C)CC5)no4)ccnc3[nH]2)cnn1C1CCOCC1 [Compound 154, 3-(1-Methyl-cyclopropyl)-[1,2,4]oxadiazole-5-carboxylic acid ((R)-6-{2-[5-methyl-1-(tetrahydro-pyran-4-yl)-1H-pyrazol-4-yl]-3H-imidazo[4,5-b]pyridin-7-yl}-1,2,3,4-tetrahydro-naphthalen-1-yl)-amide] | 10 to 100 nM | 1 to 10 nM |
| Cc1c(-c2nc3c(-c4ccc5c(c4)CCC[C@H]5NC(=O)c4noc(C(C)(C)C)n4)ccnc3[nH]2)cnn1C1CCOCC1 [Compound 156, 5-tert-Butyl-[1,2,4]oxadiazole-3-carboxylic acid ((R)-6-{2-[5-methyl-1-(tetrahydro-pyran-4-yl)-1H-pyrazol-4-yl]-3H-imidazo[4,5-b]pyridin-7-yl}-1,2,3,4-tetrahydro-naphthalen-1-yl)-amide] | 1 to 10 nM | < 1 nM |
| Cc1c(-c2nc3c(-c4ccc5c(c4)CCC[C@H]5NC(=O)N4CC(OC(C)(C)C)C4)ccnc3[nH]2)cnn1C1CCOCC1 [Compound 158, 3-tert-Butoxy-azetidine-1-carboxylic acid ((R)-6-{2-[5-methyl-1-(tetrahydro-pyran-4-yl)-1H-pyrazol-4-yl]-3H-imidazo[4,5-tetrahydro-naphthalen-1-b]pyridin-7-yl}-1,2,3,4-tetrahydro-naphthalen-1-yl)-amide] | 1 to 10 nM | 1 to 10 nM |
